Test results as given in ChEMBL document CHEMBL3885861, “Open TG-GATES”.

Species: Rattus norvegicus
Test: Open TG-GATES - Regimen: Single
Format: toxicity, organism-based, Sprague-Dawley
Design: regimen Single, gender Male, age 6 weeks
Details: in vivo, po, 0 mg/kg, route gavage, dose level Control; for APTT / Bas / Eos / Fbg / Hb / Ht / Lym / MCH / MCHC / MCV / Mono / Neu / PT / Plat / RBC / Ret / WBC: tissue Blood; for KIDNEY_L / KIDNEY_R / KIDNEY_TOTAL: tissue Kidney; for LIVER: tissue Liver; for A/G / ALP / ALT / AST / BUN / CRE / Ca / Cl / DBIL / GLC / IP / K / LDH / Na / PL / RALB / TBIL / TC / TG / TP / gamma-GTP: tissue Plasma

Nc1ccc(Cc2ccc(N)cc2)cc1 showed a TERMINAL_BW (3 h) of 209.4 g, an APTT (3 h) of 13.9 s and a Bas (3 h) of 0%. The Eos (3 h) was 0.6%, the Fbg (3 h) was 263.2 mg/dL and the Hb (3 h) was 12.7 g/dL. It also gave a Ht (3 h) of 37.3%, a Lym (3 h) of 73.6% and an MCH (3 h) of 21.8 pg. The MCHC (3 h) was 34.1%, the MCV (3 h) was 63.9 fL and the Mono (3 h) was 3%. For the same molecule, the Neu (3 h) was 21.2%, the PT (3 h) was 11.7 s and the Plat (3 h) was 145.5 x10_4/uL. The RBC (3 h) was 584.2 x10_4/ul, the Ret (3 h) was 9.5% and the WBC (3 h) was 100 x10_2/uL. The KIDNEY_L (3 h) was 0.9 g, the KIDNEY_R (3 h) was 0.9 g and the KIDNEY_TOTAL (3 h) was 1.8 g. For the same molecule, the LIVER (3 h) was 9.5 g, the A/G (3 h) was 0.8 and the ALP (3 h) was 1787.8 IU/L. For the same molecule, the ALT (3 h) was 46.8 IU/L, the AST (3 h) was 90.8 IU/L and the BUN (3 h) was 9.8 mg/dL. The CRE (3 h) was 0.2 mg/dL, the Ca (3 h) was 11 mg/dL and the Cl (3 h) was 106.8 meq/L. For the same molecule, the DBIL (3 h) was 0.024 mg/dL, the GLC (3 h) was 158.2 mg/dL and the IP (3 h) was 9.1 mg/dL. The K (3 h) was 3.7 meq/L, the LDH (3 h) was 72.6 IU/L and the Na (3 h) was 141.2 meq/L. It also gave a PL (3 h) of 149.8 mg/dL, an RALB (3 h) of 2.5 g/dL and a TBIL (3 h) of 0.056 mg/dL. It also gave a TC (3 h) of 76.8 mg/dL, a TG (3 h) of 128.2 mg/dL and a TP (3 h) of 5.6 g/dL. It also gave a gamma-GTP (3 h) of 1 IU/L, a TERMINAL_BW (6 h) of 206.4 g and an APTT (6 h) of 14.9 s. It also gave a Bas (6 h) of 0%, an Eos (6 h) of 1% and a Fbg (6 h) of 279.2 mg/dL. It also gave a Hb (6 h) of 13 g/dL, a Ht (6 h) of 38% and a Lym (6 h) of 74.2%. It also gave an MCH (6 h) of 21.4 pg, an MCHC (6 h) of 34.1% and an MCV (6 h) of 62.8 fL. It also gave a Mono (6 h) of 2.6%, a Neu (6 h) of 21.6% and a PT (6 h) of 11.6 s. For the same molecule, the Plat (6 h) was 134.9 x10_4/uL, the RBC (6 h) was 606 x10_4/ul and the Ret (6 h) was 8%. It also gave a WBC (6 h) of 104.9 x10_2/uL, a KIDNEY_L (6 h) of 0.9 g and a KIDNEY_R (6 h) of 0.9 g. For the same molecule, the KIDNEY_TOTAL (6 h) was 1.8 g, the LIVER (6 h) was 8.5 g and the A/G (6 h) was 0.8. The ALP (6 h) was 1552.8 IU/L, the ALT (6 h) was 35.2 IU/L and the AST (6 h) was 75 IU/L. For the same molecule, the BUN (6 h) was 9 mg/dL, the CRE (6 h) was 0.2 mg/dL and the Ca (6 h) was 10.8 mg/dL. The Cl (6 h) was 107.4 meq/L, the DBIL (6 h) was 0.024 mg/dL and the GLC (6 h) was 165 mg/dL. The IP (6 h) was 10 mg/dL, the K (6 h) was 4.2 meq/L and the LDH (6 h) was 67 IU/L. The Na (6 h) was 141.8 meq/L, the PL (6 h) was 131.6 mg/dL and the RALB (6 h) was 2.5 g/dL. For the same molecule, the TBIL (6 h) was 0.062 mg/dL, the TC (6 h) was 71.2 mg/dL and the TG (6 h) was 59.4 mg/dL. It also gave a TP (6 h) of 5.7 g/dL, a gamma-GTP (6 h) of 1.4 IU/L and a TERMINAL_BW (9 h) of 204.2 g. The APTT (9 h) was 14.5 s, the Bas (9 h) was 0% and the Eos (9 h) was 0.8%. It also gave a Fbg (9 h) of 277 mg/dL, a Hb (9 h) of 12.7 g/dL and a Ht (9 h) of 37.3%. It also gave a Lym (9 h) of 73.4%, an MCH (9 h) of 21.1 pg and an MCHC (9 h) of 34.2%. The MCV (9 h) was 61.8 fL, the Mono (9 h) was 1.8% and the Neu (9 h) was 23.6%. The PT (9 h) was 11.7 s, the Plat (9 h) was 137.5 x10_4/uL and the RBC (9 h) was 603.8 x10_4/ul. The Ret (9 h) was 8%, the WBC (9 h) was 65.4 x10_2/uL and the KIDNEY_L (9 h) was 0.9 g. It also gave a KIDNEY_R (9 h) of 0.9 g, a KIDNEY_TOTAL (9 h) of 1.7 g and an LIVER (9 h) of 7.8 g. It also gave an A/G (9 h) of 0.8, an ALP (9 h) of 1332.6 IU/L and an ALT (9 h) of 27.4 IU/L. For the same molecule, the AST (9 h) was 64.4 IU/L, the BUN (9 h) was 8.8 mg/dL and the CRE (9 h) was 0.2 mg/dL. The Ca (9 h) was 10.5 mg/dL, the Cl (9 h) was 106.4 meq/L and the DBIL (9 h) was 0.018 mg/dL. It also gave a GLC (9 h) of 174.2 mg/dL, an IP (9 h) of 10.5 mg/dL and a K (9 h) of 4 meq/L. It also gave an LDH (9 h) of 58.2 IU/L, a Na (9 h) of 143 meq/L and a PL (9 h) of 129.6 mg/dL. It also gave an RALB (9 h) of 2.5 g/dL, a TBIL (9 h) of 0.064 mg/dL and a TC (9 h) of 77.8 mg/dL. The TG (9 h) was 42.4 mg/dL, the TP (9 h) was 5.6 g/dL and the gamma-GTP (9 h) was 1 IU/L. For the same molecule, the TERMINAL_BW (24 h) was 219.7 g, the APTT (24 h) was 12.6 s and the Bas (24 h) was 0%. The Eos (24 h) was 1%, the Fbg (24 h) was 258.8 mg/dL and the Hb (24 h) was 13.1 g/dL. It also gave a Ht (24 h) of 37.9%, a Lym (24 h) of 73.2% and an MCH (24 h) of 21.2 pg. The MCHC (24 h) was 34.5%, the MCV (24 h) was 61.6 fL and the Mono (24 h) was 1.8%. It also gave a Neu (24 h) of 23.2%, a PT (24 h) of 11.4 s and a Plat (24 h) of 146.9 x10_4/uL. The RBC (24 h) was 616.8 x10_4/ul, the Ret (24 h) was 6.8% and the WBC (24 h) was 88.9 x10_2/uL. The KIDNEY_L (24 h) was 0.9 g, the KIDNEY_R (24 h) was 0.9 g and the KIDNEY_TOTAL (24 h) was 1.9 g. It also gave an LIVER (24 h) of 9.5 g, an A/G (24 h) of 0.9 and an ALP (24 h) of 1942.2 IU/L. For the same molecule, the ALT (24 h) was 38.6 IU/L, the AST (24 h) was 74 IU/L and the BUN (24 h) was 14.6 mg/dL. For the same molecule, the CRE (24 h) was 0.2 mg/dL, the Ca (24 h) was 10.9 mg/dL and the Cl (24 h) was 106.4 meq/L. It also gave a DBIL (24 h) of 0.02 mg/dL, a GLC (24 h) of 167 mg/dL and an IP (24 h) of 7.7 mg/dL. It also gave a K (24 h) of 3.9 meq/L, an LDH (24 h) of 49.2 IU/L and a Na (24 h) of 143.2 meq/L. It also gave a PL (24 h) of 135.4 mg/dL, an RALB (24 h) of 2.6 g/dL and a TBIL (24 h) of 0.044 mg/dL. For the same molecule, the TC (24 h) was 72 mg/dL, the TG (24 h) was 89.6 mg/dL and the TP (24 h) was 5.5 g/dL. It also gave a gamma-GTP (24 h) of 1 IU/L.
